In ChEMBL document CHEMBL3045974, “Global antifungal profile optimization of chlorophenyl derivatives against Botrytis cinerea and Colletotrichum gloeosporioides” (2009):

Experiments:
Type in all cases: functional
Botrytis cinerea [1] = test: Antifungal activity against Botryotinia fuckeliana 2100 assessed as inhibition of radial growth at 50 ug/mL at 25 degC measured after 5 days; details: Botrytis cinerea, 2100, 120 h; read-out: GI
Botrytis cinerea [2] = test: Antifungal activity against Botryotinia fuckeliana 2100 assessed as inhibition of radial growth at 100 ug/mL at 25 degC measured after 5 days; details: Botrytis cinerea, 2100, 120 h; read-out: GI
Botrytis cinerea [3] = test: Antifungal activity against Botryotinia fuckeliana 2100 assessed as inhibition of radial growth at 150 ug/mL at 25 degC measured after 5 days; details: Botrytis cinerea, 2100, 120 h; read-out: GI
[4] = test system: Colletotrichum gloeosporioides; test: Antifungal activity against Colletotrichum gloeosporioides 20122-CECT assessed as inhibition of radial growth at 50 ug/mL at 25 degC measured after 5 days; details: 120 h, read-out: GI
[5] = test system: Colletotrichum gloeosporioides; test: Antifungal activity against Colletotrichum gloeosporioides 20122-CECT assessed as inhibition of radial growth at 100 ug/mL at 25 degC measured after 5 days; details: 120 h, read-out: GI
[6] = test system: Colletotrichum gloeosporioides; test: Antifungal activity against Colletotrichum gloeosporioides 20122-CECT assessed as inhibition of radial growth at 150 ug/mL at 25 degC measured after 5 days; details: 120 h, read-out: GI

**Q.** `CCC(O)c1ccc(Cl)cc1` (racemic) was tested. Which inhibition of growth at 50 µg/mL (Botrytis cinerea [1]) did it give?
**A.** Its inhibition of growth at 50 µg/mL is 61%.

**Q.** What about the inhibition of growth at 100 µg/mL (Botrytis cinerea [2]) of the same molecule?
**A.** Its inhibition of growth at 100 µg/mL is 77%.

**Q.** What about the inhibition of growth at 150 µg/mL (Botrytis cinerea [3]) of the same molecule?
**A.** Its inhibition of growth at 150 µg/mL is 95%.

**Q.** What about the inhibition of growth at 50 µg/mL [4] of the same molecule?
**A.** The inhibition of growth at 50 µg/mL was 28%.

**Q.** What about the inhibition of growth at 100 µg/mL [5] of the same molecule?
**A.** The inhibition of growth at 100 µg/mL was 41%.

**Q.** What about the inhibition of growth at 150 µg/mL [6] of the same molecule?
**A.** Its inhibition of growth at 150 µg/mL is 51%.

**Q.** What does the source list for `CCC(O)c1cccc(Cl)c1` (racemic)?
**A.** inhibition of growth at 50 µg/mL (Botrytis cinerea [1]): 67%; inhibition of growth at 100 µg/mL (Botrytis cinerea [2]): 77%; inhibition of growth at 150 µg/mL (Botrytis cinerea [3]): 83%; inhibition of growth at 50 µg/mL [4]: 31%; inhibition of growth at 100 µg/mL [5]: 60%; inhibition of growth at 150 µg/mL [6]: 62%

**Q.** How did the inhibition of growth at 50 µg/mL (Botrytis cinerea [1]) turn out when `CCC(=O)c1cccc(Cl)c1` was run?
**A.** The inhibition of growth at 50 µg/mL was 26%.

**Q.** And the inhibition of growth at 100 µg/mL (Botrytis cinerea [2])?
**A.** The inhibition of growth at 100 µg/mL was 49%.

**Q.** And the inhibition of growth at 150 µg/mL (Botrytis cinerea [3])?
**A.** The inhibition of growth at 150 µg/mL was 91%.

**Q.** What about the inhibition of growth at 50 µg/mL [4] of the same molecule?
**A.** The inhibition of growth at 50 µg/mL was 22%.

**Q.** What about the inhibition of growth at 100 µg/mL [5] of the same molecule?
**A.** Its inhibition of growth at 100 µg/mL is 28%.

**Q.** What about the inhibition of growth at 150 µg/mL [6] of the same molecule?
**A.** Its inhibition of growth at 150 µg/mL is 42%.

**Q.** `O[C@H](c1ccccc1)c1ccc(Cl)cc1` was tested. Which inhibition of growth at 50 µg/mL (Botrytis cinerea [1]) did it give?
**A.** Its inhibition of growth at 50 µg/mL is 99%.

**Q.** And the inhibition of growth at 100 µg/mL (Botrytis cinerea [2])?
**A.** Its inhibition of growth at 100 µg/mL is 100%.

**Q.** And the inhibition of growth at 150 µg/mL (Botrytis cinerea [3])?
**A.** Its inhibition of growth at 150 µg/mL is 100%.

**Q.** What about the inhibition of growth at 50 µg/mL [4] of the same molecule?
**A.** Its inhibition of growth at 50 µg/mL is 73%.

**Q.** What about the inhibition of growth at 100 µg/mL [5] of the same molecule?
**A.** Its inhibition of growth at 100 µg/mL is 94%.

**Q.** And the inhibition of growth at 150 µg/mL [6]?
**A.** Its inhibition of growth at 150 µg/mL is 100%.

**Q.** What does the source list for `CC[C@@H](OC(C)=O)c1cccc(Cl)c1`?
**A.** inhibition of growth at 50 µg/mL (Botrytis cinerea [1]): 22%; inhibition of growth at 100 µg/mL (Botrytis cinerea [2]): 29%; inhibition of growth at 150 µg/mL (Botrytis cinerea [3]): 30%; inhibition of growth at 50 µg/mL [4]: 0%; inhibition of growth at 100 µg/mL [5]: 0%; inhibition of growth at 150 µg/mL [6]: 0%

**Q.** Which results are given for `O[C@H](c1ccccc1)[C@H](O)c1ccc(Cl)cc1`?
**A.** inhibition of growth at 50 µg/mL (Botrytis cinerea [1]): 32%; inhibition of growth at 100 µg/mL (Botrytis cinerea [2]): 59%; inhibition of growth at 150 µg/mL (Botrytis cinerea [3]): 62%; inhibition of growth at 50 µg/mL [4]: 22%; inhibition of growth at 100 µg/mL [5]: 42%; inhibition of growth at 150 µg/mL [6]: 51%

**Q.** With `CC[C@@H](O)c1ccc(Cl)cc1` as the molecule, how does the inhibition of growth at 50 µg/mL (Botrytis cinerea [1]) read?
**A.** The inhibition of growth at 50 µg/mL was 74%.

**Q.** And the inhibition of growth at 100 µg/mL (Botrytis cinerea [2])?
**A.** Its inhibition of growth at 100 µg/mL is 82%.

**Q.** What about the inhibition of growth at 150 µg/mL (Botrytis cinerea [3]) of the same molecule?
**A.** The inhibition of growth at 150 µg/mL was 98%.

**Q.** And the inhibition of growth at 50 µg/mL [4]?
**A.** The inhibition of growth at 50 µg/mL was 28%.

**Q.** And the inhibition of growth at 100 µg/mL [5]?
**A.** Its inhibition of growth at 100 µg/mL is 39%.

**Q.** What about the inhibition of growth at 150 µg/mL [6] of the same molecule?
**A.** The inhibition of growth at 150 µg/mL was 59%.

**Q.** For `Clc1ccc(C2OC2c2ccccc2)cc1` (centres undefined), which inhibition of growth at 150 µg/mL (Botrytis cinerea [3]) is on record?
**A.** The inhibition of growth at 150 µg/mL was 28%.

**Q.** What about the inhibition of growth at 50 µg/mL [4] of the same molecule?
**A.** The inhibition of growth at 50 µg/mL was 0%.

**Q.** What about the inhibition of growth at 100 µg/mL [5] of the same molecule?
**A.** Its inhibition of growth at 100 µg/mL is 0%.

**Q.** What about the inhibition of growth at 150 µg/mL [6] of the same molecule?
**A.** Its inhibition of growth at 150 µg/mL is 0%.

**Q.** Which results are given for `O[C@@H](c1ccc(Cl)cc1)C1CC1`?
**A.** inhibition of growth at 50 µg/mL (Botrytis cinerea [1]): 77%; inhibition of growth at 100 µg/mL (Botrytis cinerea [2]): 100%; inhibition of growth at 150 µg/mL (Botrytis cinerea [3]): 100%; inhibition of growth at 50 µg/mL [4]: 25%; inhibition of growth at 100 µg/mL [5]: 40%; inhibition of growth at 150 µg/mL [6]: 52%

**Q.** For `CC[C@H](O)c1cccc(Cl)c1`, which inhibition of growth at 50 µg/mL (Botrytis cinerea [1]) is on record?
**A.** The inhibition of growth at 50 µg/mL was 64%.

**Q.** And the inhibition of growth at 100 µg/mL (Botrytis cinerea [2])?
**A.** Its inhibition of growth at 100 µg/mL is 71%.

**Q.** And the inhibition of growth at 150 µg/mL (Botrytis cinerea [3])?
**A.** Its inhibition of growth at 150 µg/mL is 82%.

**Q.** What about the inhibition of growth at 50 µg/mL [4] of the same molecule?
**A.** The inhibition of growth at 50 µg/mL was 32%.

**Q.** What about the inhibition of growth at 100 µg/mL [5] of the same molecule?
**A.** The inhibition of growth at 100 µg/mL was 37%.

**Q.** And the inhibition of growth at 150 µg/mL [6]?
**A.** Its inhibition of growth at 150 µg/mL is 49%.

**Q.** How did the inhibition of growth at 50 µg/mL (Botrytis cinerea [1]) turn out when `CC[C@@H](O)c1cccc(Cl)c1` was run?
**A.** Its inhibition of growth at 50 µg/mL is 72%.

**Q.** And the inhibition of growth at 100 µg/mL (Botrytis cinerea [2])?
**A.** The inhibition of growth at 100 µg/mL was 80%.

**Q.** And the inhibition of growth at 150 µg/mL (Botrytis cinerea [3])?
**A.** The inhibition of growth at 150 µg/mL was 86%.

**Q.** What about the inhibition of growth at 50 µg/mL [4] of the same molecule?
**A.** The inhibition of growth at 50 µg/mL was 34%.

**Q.** And the inhibition of growth at 100 µg/mL [5]?
**A.** The inhibition of growth at 100 µg/mL was 60%.

**Q.** And the inhibition of growth at 150 µg/mL [6]?
**A.** The inhibition of growth at 150 µg/mL was 65%.
